Reference: US20150274719A1, “AMINO-SUBSTITUTED IMIDAZO[1,2-A]PYRIDINECARBOXAMIDES AND THEIR USE” (BAYER PHARMA AKTIENGESELLSCHAFT, priority 2012, published 2015)
Where a name gives a salt, the structure may show the parent alone. Read-outs that look alike come from different tables or passages of the source.

Legend:
[1] = Determination of pharmacokinetic parameters following intravenous and oral administration (rats); assay type: in vivo, male Wistar rats; details: intravenous administration in rats
Experimental: B-6. Determination of Pharmacokinetic Parameters Following Intravenous and Oral Administration
The pharmacokinetic parameters of the compounds according to the invention are determined in male CD-1 mice, male Wistar rats and female beagles. Intravenous administration in the case of mice and rats is carried out by means of a species-specific plasma/DMSO formulation, and in the case of dogs by means of a water/PEG400/ethanol formulation. In all species, oral administration of the dissolved substance is performed via gavage, based on a water/PEG400/ethanol formulation. The taking of blood from rats is simplified by inserting a silicone catheter into the right Vena jugularis externa prior to substance administration. The operation is carried out at least one day prior to the experiment with […] and administration of an analgesic (atropin/Rimadyl (3/1) 0.1 ml s.c.). The blood is taken (generally more than 10 time points) within a time window including terminal time points of at least 24 to a maximum of 72 hours after substance administration. When the blood is taken, it is passed into heparinised tubes. Then the blood plasma is obtained by centrifugation and is optionally stored at −20° C. until further processing.
An internal standard (which may also be a chemically unrelated substance) is added to the samples of the compounds according to the invention, calibration samples and qualifiers, and there follows protein precipitation by means of excess acetone. Addition of a buffer solution matched to the LC conditions, and subsequent vortexing, is followed by centrifugation at 1000 g. The supernatant is analysed by LC-MS/MS using C18 reversed-phase columns and variable mobile phase mixtures. The substances are quantified via the peak heights or areas from extracted ion chromatograms of specific selected ion monitoring experiments.
The plasma concentration/time plots determined are used to calculate the pharmacokinetic parameters such as AUC, Cmax, t1/2 (terminal half life), F (bioavailability), MRT (mean residence time) and CL (clearance), using a validated pharmacokinetic calculation program.
Since the substance quantification is carried out in plasma, it is necessary to determine the blood/plasma distribution of the substance in order to be able to adjust the pharmacokinetic parameters correspondingly. For this purpose, a defined amount of substance is incubated in heparinized whole blood of the species in question in a rocking roller mixture for 20 min. After centrifugation at 1000 g, the plasma concentration is measured (by means of LC-MS/MS; see above) and determined by calculating the ratio of the Cblood/Cplasma value.

[2] = target: T1, recombinant guanylate cyclase reporter cell line (Rattus norvegicus, UniProt P19686+P20595); assay: Action on recombinant guanylate cyclase reporter cell line; assay type: cell-based; details: in some cases mean values from individual determinations
T1 construct: expressed in transfected cells; host or cells: recombinant reporter cell line
T1 sequence (P19686 1-690): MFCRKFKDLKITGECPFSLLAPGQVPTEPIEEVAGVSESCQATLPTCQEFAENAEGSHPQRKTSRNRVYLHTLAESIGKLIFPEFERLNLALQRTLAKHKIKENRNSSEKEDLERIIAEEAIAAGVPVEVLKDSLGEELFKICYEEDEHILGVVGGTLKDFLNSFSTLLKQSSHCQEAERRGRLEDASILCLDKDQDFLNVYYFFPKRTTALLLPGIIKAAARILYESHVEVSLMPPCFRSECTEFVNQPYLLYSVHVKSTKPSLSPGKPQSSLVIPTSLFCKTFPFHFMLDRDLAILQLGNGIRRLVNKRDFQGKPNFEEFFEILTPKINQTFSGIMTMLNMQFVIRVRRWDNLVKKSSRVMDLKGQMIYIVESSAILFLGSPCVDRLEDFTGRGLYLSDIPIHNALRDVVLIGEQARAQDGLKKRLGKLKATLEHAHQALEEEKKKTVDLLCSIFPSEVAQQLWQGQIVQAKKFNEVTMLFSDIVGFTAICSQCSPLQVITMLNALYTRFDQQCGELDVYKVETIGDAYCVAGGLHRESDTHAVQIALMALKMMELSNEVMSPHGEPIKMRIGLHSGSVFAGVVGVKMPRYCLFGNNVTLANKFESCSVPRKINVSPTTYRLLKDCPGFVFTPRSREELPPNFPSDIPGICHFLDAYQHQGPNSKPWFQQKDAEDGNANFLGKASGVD
T1 sequence (P20595 1-619): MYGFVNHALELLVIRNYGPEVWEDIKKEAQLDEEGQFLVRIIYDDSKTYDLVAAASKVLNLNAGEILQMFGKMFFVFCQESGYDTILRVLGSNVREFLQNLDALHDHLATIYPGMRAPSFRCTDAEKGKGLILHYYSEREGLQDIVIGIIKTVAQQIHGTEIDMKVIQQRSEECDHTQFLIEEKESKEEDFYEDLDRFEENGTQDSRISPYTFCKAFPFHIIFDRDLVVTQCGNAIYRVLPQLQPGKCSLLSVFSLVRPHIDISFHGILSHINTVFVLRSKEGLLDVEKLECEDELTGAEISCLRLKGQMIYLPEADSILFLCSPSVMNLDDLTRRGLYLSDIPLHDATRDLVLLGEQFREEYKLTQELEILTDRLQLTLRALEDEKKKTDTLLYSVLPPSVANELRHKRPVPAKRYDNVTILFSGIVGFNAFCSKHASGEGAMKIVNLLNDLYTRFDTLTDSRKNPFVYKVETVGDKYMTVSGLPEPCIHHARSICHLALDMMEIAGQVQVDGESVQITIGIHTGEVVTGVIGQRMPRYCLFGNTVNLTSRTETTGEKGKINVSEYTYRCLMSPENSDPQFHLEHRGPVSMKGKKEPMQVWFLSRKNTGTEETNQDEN
How it was run: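 Rat recombinant guanylate cyclase reporter cell line measures cellular activity. Value reported as MEC (minimal effective concentration), sometimes averaged over individual determinations.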

[3] = male, Wistar, rat, plasma, iv, read-out: MRT

SMILES | AUCnorm [1] [kg·h/L] | CLblood [1] [L/h/kg] | half-life ([1]; male, Wistar, rat, plasma, iv) [min] | MRT [1, 3] [h] | MEC (minimal effective concentration) [2] [µM] | MRT [1] [h] | t1/2 [1] [h]
Cc1cc(OCc2c(F)ccc(F)c2F)c2nc(C)c(C(=O)NCC(C)(N)CF)n2c1 (single isomer, unassigned; enantiomer a) [Example 285, ent-N-(2-amino-3-fluoro-2-methylpropyl)-2,6-dimethyl-8-[(2,3,6-trifluorobenzyl)oxy]imidazo[1,2-a]pyridine-3-carboxamide (Enantiomer A)] | 0.54 | 1.02 | 216 | 4.4 | 0.3 | – | –
Cc1nc2c(OCc3c(F)cccc3F)cc(C(F)F)cn2c1C(=O)NCC(C)(N)CF (single isomer, unassigned; enantiomer a) [Example 291, ent-N-(2-amino-3-fluoro-2-methylpropyl)-8-[(2,6-difluorobenzyl)oxy]-6-(difluoromethyl)-2-methylimidazo[1,2-a]pyridine-3-carboxamide (Enantiomer A)] | 0.87 | 0.84 | 288 | 5.7 | 1.0 | – | –
Cc1nc2c(OCc3c(F)cccc3F)cccn2c1C(=O)NC(CN)c1ccc(F)cc1 (single isomer, unassigned; enantiomer b) [Example 10, ent-N-[2-Amino-1-(4-fluorophenyl)ethyl]-8-[(2,6-difluorobenzyl)oxy]-2-methylimidazo[1,2-a]-pyridine-3-carboxamide (Enantiomer B)] | 2.26 | 0.74 | 288 | 6.9 | 0.30 | – | –
CCC(C)(N)CNC(=O)c1c(C)nc2c(OCc3c(F)ccc(F)c3F)cc(C)cn12 (single isomer, unassigned; enantiomer b) [Example 275, ent-N-(2-Amino-2-methylbutyl)-2,6-dimethyl-8-[(2,3,6-trifluorobenzyl)oxy]imidazo[1,2-a]-pyridine-3-carboxamide (Enantiomer B)] | 0.64 | 1.25 | – | – | 0.10 | 7.2 | 4.1
Cc1cc(OCc2c(F)ccc(F)c2F)c2nc(C)c(C(=O)NCC(C)(N)CF)n2c1 (single isomer, unassigned; enantiomer b) [Example 286, ent-N-(2-amino-3-fluoro-2-methylpropyl)-2,6-dimethyl-8-[(2,3,6-trifluorobenzyl)oxy]imidazo[1,2-a]pyridine-3-carboxamide (Enantiomer B)] | 0.82 | 1.39 | – | – | 0.1 | 4.5 | 3.8

More lines, now with the values ahead:

AUCnorm [1] [kg·h/L] | CLblood [1] [L/h/kg] | half-life ([1]; male, Wistar, rat, plasma, iv) [min] | MRT [1, 3] [h] | MEC (minimal effective concentration) [2] [µM] | MRT [1] [h] | t1/2 [1] [h] | SMILES
0.42 | 2.76 | 138 | 2.9 | 0.3 | – | – | CCC(C)(N)CNC(=O)c1c(C)nc2c(OCc3c(F)cccc3F)cc(OC)cn12 (single isomer, unassigned; enantiomer a) [Example 279, ent-N-(2-amino-2-methylbutyl)-8-[(2,6-difluorobenzyl)oxy]-6-methoxy-2-methylimidazo[1,2-a]pyridine-3-carboxamide (Enantiomer A)]
0.67 | 0.87 | 186 | 3.9 | 0.3 | – | – | Cc1cc(OCc2c(F)cccc2F)c2nc(C)c(C(=O)NCC(C)(N)CF)n2c1 (single isomer, unassigned; enantiomer a) [Example 283, ent-N-(2-amino-3-fluoro-2-methylpropyl)-8-[(2,6-difluorobenzyl)oxy]-2,6-dimethylimidazo[1,2-a]pyridine-3-carboxamide (Enantiomer A)]
0.66 | 1.76 | 324 | 8.4 | 0.3 | – | – | CCC(C)(N)CNC(=O)c1c(C)nc2c(OCc3c(F)cccc3F)cc(C(F)F)cn12 (single isomer, unassigned; enantiomer a) [Example 287, ent-N-(2-amino-2-methylbutyl)-8-[(2,6-difluorobenzyl)oxy]-6-(difluoromethyl)-2-methylimidazo[1,2-a]pyridine-3-carboxamide Formate (Enantiomer A)]
0.47 | 2.29 | 222 | 4.7 | 0.10 | – | – | Cc1cc(OCc2c(F)cccc2F)c2nc(C)c(C(=O)NCC(C)(N)C3CC3)n2c1 (single isomer, unassigned; enantiomer b) [Example 261, ent-N-(2-Amino-2-cyclopropylpropyl)-8-[(2,6-difluorobenzyl)oxy]-2,6-dimethylimidazo[1,2-a]-pyridine-3-carboxamide (Enantiomer B)]
0.28 | 2.34 | 330 | 6.9 | 0.3 | – | – | CCCC(C)(N)CNC(=O)c1c(C)nc2c(OCc3c(F)cccc3F)cc(C3CC3)cn12 (single isomer, unassigned; enantiomer b) [Example 281, ent-N-(2-amino-2-methylpentyl)-6-cyclopropyl-8-[(2,6-difluorobenzyl)oxy]-2-methylimidazo[1,2-a]pyridine-3-carboxamide (Enantiomer B)]
1.20 | 0.97 | – | – | 0.1 | 5.3 | 4.6 | Cc1cc(OCc2c(F)cccc2F)c2nc(C)c(C(=O)NCC(C)(N)CF)n2c1 (single isomer, unassigned; enantiomer b) [Example 284, ent-N-(2-amino-3-fluoro-2-methylpropyl)-8-[(2,6-difluorobenzyl)oxy]-2,6-dimethylimidazo[1,2-a]pyridine-3-carboxamide (Enantiomer B)]
